# Measured values as given in PubChem BioAssay AID2060620 (Molecular Pharmacology Branch, DTP, NCI, 2025).
# Test system: 328373-195-R-J1-PDC complex spheroids, viability % test/control
# Assay: Anticancer human tumor 328373-195-R-J1-PDC patient-derived head and neck squamous carcinoma cell line growth inhibition [CLK]
# Conditions: for IC50: curve of first compound; for viability, T/C: stronger effect = lower value
# Procedure, shortened: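 Multi-cell-type spheroids combined patient-derived tumor cells with HUVEC endothelial cells and human mesenchymal stem cells. Paired agents were dosed in half-log steps down from about clinical Cmax, or from 10 microM where Cmax was unknown.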
# [1] = second compound 0.0316 µM, first compound 0.0316 µM
# [2] = second compound 0.0316 µM, first compound 0.1 µM
# [3] = second compound 0.0316 µM, first compound 0.316 µM
# [4] = second compound 0.0316 µM, first compound 1 µM
# [5] = second compound 0.1 µM, first compound 0.0316 µM
# [6] = second compound 0.1 µM, first compound 0.1 µM
# [7] = second compound 0.1 µM, first compound 0.316 µM
# [8] = second compound 0.1 µM, first compound 1 µM
# [9] = second compound 0.316 µM, first compound 0.0316 µM
# [10] = second compound 0.316 µM, first compound 0.1 µM
# [11] = second compound 0.316 µM, first compound 0.316 µM
# [12] = second compound 0.316 µM, first compound 1 µM
# [13] = second compound 1 µM, first compound 0.0316 µM
# [14] = second compound 1 µM, first compound 0.1 µM
# [15] = second compound 1 µM, first compound 0.316 µM
# [16] = second compound 1 µM, first compound 1 µM
# [17] = second compound 3.16 µM, first compound 0.0316 µM
# [18] = second compound 3.16 µM, first compound 0.1 µM
# [19] = second compound 3.16 µM, first compound 0.316 µM
# [20] = second compound 3.16 µM, first compound 1 µM
# [21] = second compound 10 µM, first compound 0.0316 µM
# [22] = second compound 10 µM, first compound 0.1 µM
# [23] = second compound 10 µM, first compound 0.316 µM
# [24] = second compound 10 µM, first compound 1 µM
# 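Note: spheroids exposed to the agents for 7 days.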
compound,measurement,setting,value
C=CC(=O)Nc1cc(Nc2nccc(-c3cn(C)c4ccccc34)n2)c(OC)cc1N(C)CCN(C)C + CN1CCN(c2cc(C(=O)Nc3cc4cc(-c5cnn(C)c5)ccc4cn3)ccn2)CC1,IC50,second compound 0.0316 µM,> 300 nM
same,IC50,second compound 0.1 µM,> 300 nM
same,IC50,second compound 0.316 µM,< 0.949 nM
same,IC50,second compound 1 µM,< 0.949 nM
same,IC50,second compound 3.16 µM,< 0.949 nM
same,IC50,second compound 10 µM,< 0.949 nM
same,"viability, T/C","second compound 0.0316 µM, first compound 0.000949 µM",100%
same,"viability, T/C","second compound 0.0316 µM, first compound 0.003 µM",112%
same,"viability, T/C","second compound 0.0316 µM, first compound 0.00949 µM",99.2%
same,"viability, T/C","second compound 0.0316 µM, first compound 0.03 µM",96.9%
same,"viability, T/C","second compound 0.0316 µM, first compound 0.0949 µM",98.7%
same,"viability, T/C","second compound 0.0316 µM, first compound 0.3 µM",93.6%
same,"viability, T/C","second compound 0.1 µM, first compound 0.000949 µM",83.8%
same,"viability, T/C","second compound 0.1 µM, first compound 0.003 µM",88.1%
same,"viability, T/C","second compound 0.1 µM, first compound 0.00949 µM",87.4%
same,"viability, T/C","second compound 0.1 µM, first compound 0.03 µM",90.7%
same,"viability, T/C","second compound 0.1 µM, first compound 0.0949 µM",96%
same,"viability, T/C","second compound 0.1 µM, first compound 0.3 µM",69%
same,"viability, T/C","second compound 0.316 µM, first compound 0.000949 µM",30.1%
same,"viability, T/C","second compound 0.316 µM, first compound 0.003 µM",35%
same,"viability, T/C","second compound 0.316 µM, first compound 0.00949 µM",30.1%
same,"viability, T/C","second compound 0.316 µM, first compound 0.03 µM",26.3%
same,"viability, T/C","second compound 0.316 µM, first compound 0.0949 µM",26.6%
same,"viability, T/C","second compound 0.316 µM, first compound 0.3 µM",18.1%
same,"viability, T/C","second compound 1 µM, first compound 0.000949 µM",0.15%
same,"viability, T/C","second compound 1 µM, first compound 0.003 µM",0.25%
same,"viability, T/C","second compound 1 µM, first compound 0.00949 µM",0.9%
same,"viability, T/C","second compound 1 µM, first compound 0.03 µM",0.25%
same,"viability, T/C","second compound 1 µM, first compound 0.0949 µM",1.86%
same,"viability, T/C","second compound 1 µM, first compound 0.3 µM",1.95%
same,"viability, T/C","second compound 3.16 µM, first compound 0.000949 µM",1.21%
same,"viability, T/C","second compound 3.16 µM, first compound 0.003 µM",0.16%
same,"viability, T/C","second compound 3.16 µM, first compound 0.00949 µM",0.17%
same,"viability, T/C","second compound 3.16 µM, first compound 0.03 µM",0.15%
same,"viability, T/C","second compound 3.16 µM, first compound 0.0949 µM",4.52%
same,"viability, T/C","second compound 3.16 µM, first compound 0.3 µM",2.34%
same,"viability, T/C","second compound 10 µM, first compound 0.000949 µM",0.17%
same,"viability, T/C","second compound 10 µM, first compound 0.003 µM",0.21%
same,"viability, T/C","second compound 10 µM, first compound 0.00949 µM",1.31%
same,"viability, T/C","second compound 10 µM, first compound 0.03 µM",2.14%
same,"viability, T/C","second compound 10 µM, first compound 0.0949 µM",3.21%
same,"viability, T/C","second compound 10 µM, first compound 0.3 µM",0.21%
CCN1CCN(Cc2ccc(Nc3ncc(F)c(-c4cc(F)c5nc(C)n(C(C)C)c5c4)n3)nc2)CC1 + CN1CCN(c2cc(C(=O)Nc3cc4cc(-c5cnn(C)c5)ccc4cn3)ccn2)CC1,IC50,second compound 0.0316 µM,> 1000 nM
same,IC50,second compound 0.1 µM,> 1000 nM
same,IC50,second compound 0.316 µM,< 3.16 nM
same,IC50,second compound 1 µM,< 3.16 nM
same,IC50,second compound 3.16 µM,< 3.16 nM
same,IC50,second compound 10 µM,< 3.16 nM
same,"viability, T/C","second compound 0.0316 µM, first compound 0.00316 µM",94.7%
same,"viability, T/C","second compound 0.0316 µM, first compound 0.01 µM",95.9%
same,"viability, T/C",[1],103%
same,"viability, T/C",[2],79.5%
same,"viability, T/C",[3],71.3%
same,"viability, T/C",[4],51.2%
same,"viability, T/C","second compound 0.1 µM, first compound 0.00316 µM",86.5%
same,"viability, T/C","second compound 0.1 µM, first compound 0.01 µM",84.8%
same,"viability, T/C",[5],88.5%
same,"viability, T/C",[6],69.3%
same,"viability, T/C",[7],63%
same,"viability, T/C",[8],53.3%
same,"viability, T/C","second compound 0.316 µM, first compound 0.00316 µM",29.9%
same,"viability, T/C","second compound 0.316 µM, first compound 0.01 µM",32.9%
same,"viability, T/C",[9],31.6%
same,"viability, T/C",[10],26.5%
same,"viability, T/C",[11],24.2%
same,"viability, T/C",[12],18.5%
same,"viability, T/C","second compound 1 µM, first compound 0.00316 µM",0.16%
same,"viability, T/C","second compound 1 µM, first compound 0.01 µM",2.17%
same,"viability, T/C",[13],0.34%
same,"viability, T/C",[14],1.1%
same,"viability, T/C",[15],0.85%
same,"viability, T/C",[16],0.24%
same,"viability, T/C","second compound 3.16 µM, first compound 0.00316 µM",0.11%
same,"viability, T/C","second compound 3.16 µM, first compound 0.01 µM",1.57%
same,"viability, T/C",[17],1.92%
same,"viability, T/C",[18],0.15%
same,"viability, T/C",[19],1.14%
same,"viability, T/C",[20],0.2%
same,"viability, T/C","second compound 10 µM, first compound 0.00316 µM",0.37%
same,"viability, T/C","second compound 10 µM, first compound 0.01 µM",0.56%
same,"viability, T/C",[21],3.2%
same,"viability, T/C",[22],0.17%
same,"viability, T/C",[23],1.94%
same,"viability, T/C",[24],1.71%
Nc1ccccc1NC(=O)c1ccc(CNC(=O)OCc2cccnc2)cc1 + CN1CCN(c2cc(C(=O)Nc3cc4cc(-c5cnn(C)c5)ccc4cn3)ccn2)CC1,IC50,second compound 0.0316 µM,706 nM
same,IC50,second compound 0.1 µM,641 nM
same,IC50,second compound 0.316 µM,< 31.6 nM
same,IC50,second compound 1 µM,< 31.6 nM
same,IC50,second compound 3.16 µM,< 31.6 nM
same,IC50,second compound 10 µM,< 31.6 nM
same,"viability, T/C",[1],90.1%
same,"viability, T/C",[2],79.9%
same,"viability, T/C",[3],63.5%
same,"viability, T/C",[4],38.3%
same,"viability, T/C","second compound 0.0316 µM, first compound 3.16 µM",34.1%
same,"viability, T/C","second compound 0.0316 µM, first compound 10 µM",11.1%
same,"viability, T/C",[5],74.5%
same,"viability, T/C",[6],80%
same,"viability, T/C",[7],55.4%
same,"viability, T/C",[8],40.8%
same,"viability, T/C","second compound 0.1 µM, first compound 3.16 µM",30%
same,"viability, T/C","second compound 0.1 µM, first compound 10 µM",7.09%
same,"viability, T/C",[9],26.5%
same,"viability, T/C",[10],32.9%
same,"viability, T/C",[11],22.5%
same,"viability, T/C",[12],16.6%
same,"viability, T/C","second compound 0.316 µM, first compound 3.16 µM",8.58%
same,"viability, T/C","second compound 0.316 µM, first compound 10 µM",1.38%
same,"viability, T/C",[13],0.23%
same,"viability, T/C",[14],1.09%
same,"viability, T/C",[15],0.16%
same,"viability, T/C",[16],0.08%
same,"viability, T/C","second compound 1 µM, first compound 3.16 µM",1.1%
same,"viability, T/C","second compound 1 µM, first compound 10 µM",2.52%
same,"viability, T/C",[17],0.07%
same,"viability, T/C",[18],0.75%
same,"viability, T/C",[19],1.64%
same,"viability, T/C",[20],0.06%
same,"viability, T/C","second compound 3.16 µM, first compound 3.16 µM",0.07%
same,"viability, T/C","second compound 3.16 µM, first compound 10 µM",0.09%
same,"viability, T/C",[21],0.04%
same,"viability, T/C",[22],1.05%
same,"viability, T/C",[23],0.15%
same,"viability, T/C",[24],0.1%
same,"viability, T/C","second compound 10 µM, first compound 3.16 µM",2.24%
same,"viability, T/C","second compound 10 µM, first compound 10 µM",0.16%
